Broadly, the MIC is the least concentration at which growth counts as inhibited.

The source of these data is US10004701B2, “Methods and compositions for treating infection” (UNIVERSITY OF ROCHESTER, priority 2012, dated 2018).

The subject of test [1] is Enterococcus faecium 824-05. The test can be described thus: MIC testing. The test is classed as cell-based. The note with it: 82405; Enterococcus faecium 824-05; read-out: MIC.
For test [2], the system named is Acinetobacter baumannii 98-37-09. The test can be described thus: MIC testing. The test is classed as cell-based. Particulars: 983709; Acinetobacter baumannii 98-37-09; read-out: MIC.
The test system of test [3] is Enterobacter cloacae PMD1001. The test can be described thus: MIC testing. The format is cell-based.
The next test deals with E. cloacae. In words: AK assay 384-well format, Prestwick library screening. The format is cell-based, Enterobacter cloacae. The note with it: Enterobacter cloacae, 3 h; planktonic E. cloacae; 50 μM final drug concentration; 384-well; cutoff for positive-scoring molecules 3-fold increase; read-out: AK-based Prestwick Library Screening Results: E. cloacae (increase in extracellular AK activity).

Test [4] deals with E. coli and each of the ESKAPE pathogens. The test can be described thus: AK-based Prestwick library screening, summary across organisms. The format is cell-based. The note with it: 50 μM, cutoff 3-fold increase in AK.
The next test relates to E. coli. The test can be described thus: AK assay 384-well format, Prestwick library screening. The test is classed as cell-based, Escherichia coli. The note with it: Escherichia coli, 3 h; planktonic E. coli; 50 μM final drug concentration; 384-well; cutoff for positive-scoring molecules 3-fold increase; read-out: AK-based Prestwick Library Screening Results: E. coli (increase in extracellular AK activity).

Another test relates to E. faecium. The description is as above. The format is cell-based, Enterococcus faecium. The note with it: Enterococcus faecium, 3 h; planktonic E. faecium; 50 μM final drug concentration; 384-well; cutoff for positive-scoring molecules 3-fold increase; read-out: AK-based Prestwick Library Screening Results: E. faecium (increase in extracellular AK activity).
The test system of another test is Staphylococcus aureus. In words: MIC testing. The test is classed as cell-based.
Test [5] relates to Pseudomonas aeruginosa PA01. In words: AK assay 96-well format. The test is classed as cell-based.
Another test relates to P. aeruginosa. The test can be described thus: AK assay 384-well format, Prestwick library screening. The test is classed as cell-based, Pseudomonas aeruginosa. The note with it: Pseudomonas aeruginosa, 3 h; planktonic P. aeruginosa; 50 μM final drug concentration; 384-well; cutoff for positive-scoring molecules 3-fold increase; read-out: AK-based Prestwick Library Screening Results: P. aeruginosa (increase in extracellular AK activity).

Another test concerns K. pneumoniae. Described as above. The format is cell-based, Klebsiella pneumoniae. Particulars: Klebsiella pneumoniae, 3 h; planktonic K. pneumoniae; 50 μM final drug concentration; 384-well; cutoff for positive-scoring molecules 3-fold increase; read-out: AK-based Prestwick Library Screening Results: K. pneumoniae (increase in extracellular AK activity).
A further test concerns Escherichia coli 8295. The test can be described thus: MIC testing. The test is classed as cell-based.
In test [6] the test system is Pseudomonas aeruginosa PA01. In words: MIC testing. The note with it: read-out: MIC. The test is classed as cell-based.
Test [7] has as its system Klebsiella pneumoniae cKP1. The test can be described thus: MIC testing. The test is classed as cell-based. Particulars: Klebsiella pneumoniae cKP1; read-out: MIC.
Test [8] relates to S. aureus strain USA300-0114. In words: AK assay 384-well format, Prestwick library screening. The format is cell-based, Staphylococcus aureus. Particulars: Staphylococcus aureus, USA300, 3 h; planktonic S. aureus; 50 μM final drug concentration; 384-well; cutoff for positive-scoring molecules 3-fold increase; read-out: AK-based Prestwick Library Screening Results: S. aureus (increase in extracellular AK activity).

Test [9] has as its system A. baumannii strain 98-37-09. The test is described as above. The format is cell-based, Acinetobacter baumannii. The note with it: Acinetobacter baumannii, 983709, 3 h; planktonic A. baumannii; 50 μM final drug concentration; 384-well; cutoff for positive-scoring molecules 3-fold increase; read-out: AK-based Prestwick Library Screening Results: A. baumannii (increase in extracellular AK activity).

Converted amounts (≈) assume the structure as drawn. Read-outs that look alike come from different tables or passages of the source.

For `CC[C@H]1OC(=O)[C@H](C)[C@@H](O[C@H]2C[C@@](C)(OC)[C@@H](O)[C@H](C)O2)[C@H](C)[C@@H](O[C@@H]2O[C@H](C)C[C@H](N(C)C)[C@H]2O)[C@](C)(O)C[C@@H](C)C(=O)[C@H](C)[C@@H](O)[C@]1(C)O` [Erythromycin, erythromycin], the MIC was more than 256 µg/mL in test [1]; 16 µg/mL (≈ 21.8 µM) in test [2]; 256 µg/mL (≈ 349 µM) in test [3]; 2 µg/mL (≈ 2.73 µM) with Staphylococcus aureus (Staphylococcus aureus); 64 µg/mL (≈ 87.2 µM) with Staphylococcus aureus (Staphylococcus aureus USA300-0114, read-out: MIC); 256 µg/mL (≈ 349 µM) in the test on Escherichia coli 8295. In addition, the values for the MIC in [6] and in [7] were 32 µg/mL (≈ 43.6 µM) and more than 256 µg/mL, respectively. Moreover, the fold induction at 50 µM in the test with E. cloacae was determined as 1.6; in the test on E. coli, 1; with E. faecium it was 1; with P. aeruginosa it was 0.7; in the test on K. pneumoniae it was 1; in test [8], 8.2. The fold induction at 50 µM in [9] was 1.5. The “activity in AK Prestwick screen, all species tested” value in test [4] is reported as “not identified as being active”. For the same compound, the results for the “Fold increase in AK signal” value in test [5] (treatment 0.5×MIC) and in test [5] (treatment 1.0×MIC) were 3 fold and 1 fold, respectively.
